# Laboratory results as given in patent publication US20080249042A1, “All-Trans-Retinol: All-Trans-13,14-Dihydroretinol Saturase and Methods of Its Use” (UNIVERSITY OF WASHINGTON, priority 2004, published 2008).
# Read-outs that look alike come from different tables or passages of the source.
# Legend:
# [1] = Liver retinoids of Lrat-/- mice 3 h after gavage with all-trans-ROL palmitate; assay type: in vivo, mouse; details: for Level of liver retinoids 3 hr following gavage with ROL palmitate / concentration at 3 h: Lrat-/- mice, 3 hr post-gavage, liver; for concentration at 3 h: Lrat−/− (LRAT-deficient knockout), mouse, oral, read-out: Level of liver retinoids 3 hr following gavage with ROL palmitate
# From the text: Metabolism of Retinoids in Vivo. All animal experiments employed procedures approved by the University of Washington and conformed to recommendations of the American Veterinary Medical Association Panel on Euthanasia and recommendations of the Association of Research for Vision and Ophthalmology. Animals were maintained on a 12-h light and 12-h dark cycle. All manipulations were done under dim red or infrared light (>560 nm). Most experiments used 6-12-week-old mice. Lrat−/− mice were genotyped as described previously. Batten, et al. J. Biol. Chem. 279:10422-10432, 2004. Animals were maintained on a control chow diet up to 1 h prior to oral gavage. The appropriate amount of all-trans-ROL palmitate, all-trans-DROL, or all-trans-RA was dissolved in vegetable oil and administered by oral gavage 3 h prior to analysis.
# Analysis of Retinoids. Liver (1 g) from retinoid gavaged or naive mice was homogenized in 2 ml of 137 mM NaCl, 2.7 mM KCl, and 10 mM sodium phosphate (pH 7.4) for 30 s using a Polytron homogenizer. 10 μl of 5 M NaOH was added to 3 ml of the ethanolic extract, and the nonpolar retinoids were extracted using 5 ml of hexane. The extraction was repeated, and the organic phases were combined, dried under vacuum, resuspended in hexane, and examined by normal phase HPLC using a normal phase column (Beckman Ultrasphere Si 5μ, 4.6×250 mm). The elution condition was an isocratic solvent system of 10% ethyl acetate in hexane (v/v) for 25 min at a flow rate of 1.4 ml/min at 20° C. with detection at 325 and 290 nm for the detection of nonpolar retinoids and 13,14-dihydroretinoids, respectively. The aqueous phase was acidified with 40 μl of 12 N HCl, and polar retinoids were extracted with 5 ml of hexane. The extraction was repeated, and the organic phases of the polar retinoid extractions were combined, dried, resuspended in solvent composed of 80% CH3CN, 10 mM ammonium acetate, 1% acetic acid, and examined by reverse phase HPLC. Analysis of polar retinoids from tissues was done by reverse phase HPLC using a narrowbore, 120-Å, 5-μm, 2.1×250 mm, Denali C18 column (Grace-Vydac, Hesperia, Calif.). The solvent system was composed of buffer A, 80% methanol, 20% 36 mM ammonium acetate (pH 4.7 adjusted with acetic acid), and buffer B, 100% methanol. The HPLC elution conditions were […], 100% buffer A for 40 min, 100% buffer B for 10 min, and 10 min equilibration in buffer A. The elution profiles of RA and DRA were monitored using an online diode array detector set at 350 and 290 nm, respectively. The peaks were identified based on their UV-visible spectra and/or coelution with synthetic or commercially available standards. The measured area of absorbance was converted to picomoles based on a calibration of the HPLC columns using a known amount of all-trans-RA or all-trans-ROL (Sigma) and all-trans-DROL or all-trans-DRA (synthetic standards). The extraction efficiency was monitored by spiking a tissue sample with [^3H]RA (PerkinElmer Life Sciences) and monitoring the radioactivity recovered from the HPLC column. In the case of liver samples the extraction efficiency was 95% or better. Mass spectrometry analyses of synthesized retinoids and of natural retinoids purified by HPLC were performed using a Kratos profile HV-3 direct probe mass spectrometer.
# [2] = target: T1, CYP26A1 (Mus musculus, UniProt O55127); details: 0.1 mM, 4 h, cells in culture
# T1 sequence (O55127 1-497): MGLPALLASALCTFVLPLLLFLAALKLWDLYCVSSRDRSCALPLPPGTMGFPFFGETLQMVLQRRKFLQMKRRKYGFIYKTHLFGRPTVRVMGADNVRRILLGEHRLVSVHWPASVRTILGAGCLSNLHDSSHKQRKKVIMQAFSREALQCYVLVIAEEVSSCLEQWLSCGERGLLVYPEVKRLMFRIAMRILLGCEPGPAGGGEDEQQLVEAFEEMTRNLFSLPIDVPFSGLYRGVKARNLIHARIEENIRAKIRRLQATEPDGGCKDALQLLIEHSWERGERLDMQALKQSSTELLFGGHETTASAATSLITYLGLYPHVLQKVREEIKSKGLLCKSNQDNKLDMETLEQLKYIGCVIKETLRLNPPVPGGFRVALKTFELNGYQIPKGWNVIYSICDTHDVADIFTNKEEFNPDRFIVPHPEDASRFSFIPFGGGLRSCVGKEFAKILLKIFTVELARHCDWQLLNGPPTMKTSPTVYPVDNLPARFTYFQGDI
# Experimental: CYP26A1 Oxidation Assay. […] After 24 h, the transfected cells were split into 12-well plates to ensure an equal number of transfected cells in each assay well. […] The peaks were identified based on their spectra and coelution with standards. The cell lysate was examined for expression of CYP26A1, -B1, and -C1 by SDS-PAGE and immunoblotting of the V5 epitope-tagged recombinant protein using an anti-V5 epitope monoclonal antibody (Invitrogen).
# [3] = 3 h post-gavage with ROL palmitate
# [4] = 10^5 IU/kg body weight all-trans-ROL palmitate
# [5] = 10^6 IU/kg body weight all-trans-ROL palmitate
structure (smiles),measurement,setting,value
"CC1=C(/C=C/C(C)=C/C=C/C(C)CC(=O)O)C(C)(C)CCC1 (stereo not drawn) [all-trans-DRA, all-trans-13,14-dihydroretinoic acid]","Liver level, fold lower than all-trans-RA",[1]; [3],30-50 fold
same,Level of liver retinoids 3 hr following gavage with ROL palmitate,[1]; [4],10 ± 2 pmol/g tissue
same,Level of liver retinoids 3 hr following gavage with ROL palmitate,[1]; [5],190 ± 17 pmol/g tissue
same,Oxidation to polar metabolites by CYP26A1,[2],efficiently carried out the oxidation
"CC1=C(/C=C/C(C)=C/C=C/C(C)CCO)C(C)(C)CCC1 (stereo not drawn) [all-trans-DROL, all-trans-13,14-dihydroretinol]","Liver level, fold lower than all-trans-ROL",[1]; [3],280-330 fold
same,Level of liver retinoids 3 hr following gavage with ROL palmitate,[1]; [4],21 ± 4 pmol/g tissue
same,Level of liver retinoids 3 hr following gavage with ROL palmitate,[1]; [5],100 ± 18 pmol/g tissue
"CC1=C(/C=C/C(C)=C/C=C/C(C)=C/C(=O)O)C(C)(C)CCC1 [all-trans-RA, all-trans-retinoic acid, reference compound]",concentration at 3 h,[1]; [4],0.32 ± 0.24 µM
same,concentration at 3 h,[1]; [5],9.4 µM
same,Oxidation to polar metabolites by CYP26A1,[2],efficiently carried out the oxidation
"CC1=C(/C=C/C(C)=C/C=C/C(C)=C/CO)C(C)(C)CCC1 [all-trans-ROL, all-trans-retinol]",Level of liver retinoids 3 hr following gavage with ROL palmitate,[1]; [4],"7,000 ± 1,200 pmol/g tissue"
same,Level of liver retinoids 3 hr following gavage with ROL palmitate,[1]; [5],"28,000 ± 300 pmol/g tissue"
